Reference: patent US8057829B2, “Methods for repelling insects using sesquiterpene hydrocarbons and their derivatives” (Sterling International Inc., priority 2008, dated 2011)

Legend:
[1] = test system: female antennae of sand fly Phlebotomus papatasi and mosquitoes Aedes aegypti, Anopheles gambiae, Anopheles stephensi; test: GC-EAD responses of sand fly and three mosquitoes to synthetic mixtures; conditions: about 100 ng of each compound, on one or more of the sand fly or the mosquitoes, FIGS. 9 and 10
Protocol: The GC-EAD responses of female antennae of the sand fly, Phlebotomus papatasi, and three species of mosquitoes, Aedes aegypti, Anopheles gambiae, and anopheles stephensi were tested on a synthetic mixture of 1-octen-3-ol, six sesquiterpene hydrocarbons including (+)-longipinene, (−)-isolongifolene, (+)-longifolene, β-caryophyllene, isolongifolenone, and α-humulene, and several known insect repellents including ZE-nepetalactone, EZ-nepetalactone, with about 100 ng of each compound in the mixture.
The GC-EAD responses of female antennae of the sand fly, Phlebotomus papatasi, and three species mosquitoes, Aedes aegypti, Anopheles gambiae, and anopheles stephensi were tested on a synthetic mixture of 1-octen-3-ol, linalool, β-caryophyllene oxide, isocaryophyllene, β-caryophyllene, and α-humulene, and DEET, with about 100 ng of each compound in the mixture.
(§1) The following procedures were employed to test the EAD response of an insect antenna to a repellent compound. The GC-EAD technique provides an efficient tool for screening behaviorally active repellents. Several synthetic mixtures of potential insect repellent candidates, mostly sesquiterpene hydrocarbons and derivatives, were analyzed in splitless mode using a Varian CP-3800 GC equipped with a polar column (Innowax; 1.0 μm film thickness, 30 m×0.53 mm ID; J & W Scientific), and a 1:1 effluent splitter that allowed simultaneous flame ionization detection (FID) and EAD of the separated volatile compounds. Helium was used as the carrier gas, and the injector temperature was 220° C. The column temperature was 50° C. for 2 min, rising to 240° C. at 10° C./min, then held for 10 min. The outlet for the EAD was held in a humidified air stream flowing at 0.5 liter/min. over an antennal preparation. A glass capillary indifferent electrode filled with Beadle-Ephrussi Ringer, and grounded via a silver wire, was inserted into the severed insect's head with the antennae. A similar recording electrode connected to a high-impedance DC amplifier with automatic baseline drift compensation was placed in contact with the distal end of one antenna (Zhang et al., Chemoecology, 10:69-80 (2000)). The antennal signals were stored and analyzed on a PC equipped with a serial IDAC interface box and the program EAD ver. 2.5 (Syntech, Hilversum, The Netherlands). The compound 1-octen-3-ol (known attractant for many flies and mosquitoes) was included in most of the synthetic mixtures, as a positive control. The results of the experiments are shown in FIGS. 1-10 and described above.

[2] = test system: houseflies; test: Laboratory sticky trap bioassay of spatial repellency with egg powder attractant; format: in vivo, housefly (Musca domestica); conditions: egg powder plus repellent, FIG. 13
Protocol: Laboratory bioassay tests were carried out to investigate the efficacy of some of the EAD-active compounds described above to act as spatial repellents against several insects. The procedure for the bioassay tests is described in Example 2 below. Briefly stated, the bioassay included using egg powder (EP) as an attractant for flies, while the compound whose insect repellency was being tested was placed in proximity to the egg powder. In FIGS. 11-13, the bioassay was carried out on houseflies using devices known by the designation Trécé Pherocon® VI sticky traps.
The following lab bioassay tests were employed to illustrate the efficacy of the compounds to effectively act as spatial repellents for flies. Three sets of tests were conducted in a fly testing room (23° C., 70% RH, and 12/12 (L/D) light regime illuminated by fluorescent lights). Two sets of tests were carried out using Trécé Pherocon® VI traps with sticky inserts, which were set up on poles evenly spaced on a rotating table. The traps were ca. 1 m above a table surface, and ca. 1 m apart from each other. Two grams of egg powder in a white cap (4 cm in diameter, 0.5 cm in height) used as an attractant was put on the center of the sticky insert in the sticky trap. The potential repellent candidate chemicals were loaded into polyethylene bags, and were hung under the inner roof of the traps, 1-1.5 cm above the egg powder attractant. A control had the empty white cap and blank polyethylene bag, while the positive control had only the egg powder and an empty polyethylene bag. The test table was rotated 1.5 r.p.h. […] About 200-300 houseflies (2-3 days old) were released into the testing room for each test. Tests were normally run from 8:00 am to 5:00 pm, and the numbers of houseflies caught in each trap were counted after each test. The results of these tests are shown in FIGS. 11-13 and described above.

[3] = test system: housefly (Musca domestica) antenna; test: GC-EAD antennal response, housefly; conditions: female housefly antenna; synthetic mixture, about 100 ng of each compound; FIG. 3
Text: The sesquiterpene hydrocarbons and their derivatives disclosed herein have been identified as suitable insect repellents by testing via a gas chromatographic-electroantennographic detection (GC-EAD) method as described in Example 1 below. This method can be used to efficiently screen for potentially behaviorally active compounds, including insect repellents, attractants, deterrents, or attraction-inhibitors from complex natural sources or synthetic mixtures.
The GC-EAD responses of the female housefly antenna were tested on a synthetic mixture of 1-octen-3-ol, a known attractant used as a positive control, and representative sesquiterpene hydrocarbons and derivatives, (+)-longipinene, (−)-isolongifolene, (+)-longifolene, β-caryophyllene, α-humulene, and isolongifolenone, with about 100 ng of each compound in the mixture.
The GC-EAD responses of the male housefly antenna were tested on a synthetic mixture of 1-octen-3-ol, and two representative sesquiterpenes, β-caryophyllene and isocaryophyllene, with about 100 ng of each compound in the mixture.
as §1

[4] = test system: female mosquito Culex pipiens antenna; test: GC-EAD antennal response, Culex pipiens; conditions: female Culex pipiens antennae; about 100 ng of each compound; responses weak, but repeatable; FIGS. 7 and 8
Protocol: The GC-EAD responses of the female mosquito Culex pipiens antenna were tested on a synthetic mixture of 1-octen-3-ol, and two sesquiterpene hydrocarbons, β-caryophyllene and isocaryophyllene, with about 100 ng of each compound in the mixture.
The GC-EAD responses of the female mosquito Culex pipiens antenna were tested on a synthetic mixture of 1-octen-3-ol, and representative sesquiterpene hydrocarbons and derivatives including (+)-longipinene, (−)-isolongifolene, (+)-longifolene, β-caryophyllene, and isolongifolenone, with about 100 ng of each compound in the mixture.
Antennal responses were weak, but repeatable, thus are considered to be true responses.
as §1

CC1(C)C2=CCCC(C)(C)C23CCC1C3 (single isomer, unassigned; (-)) [(−)-isolongifolene, 2,2,7,7-tetramethyltricyclo undec-5-ene]
GC-EAD antennal activity [1]: antennally active
female house flies per trap ([2]; egg powder alone 76 females): 39 house flies per trap
male house flies per trap ([2]; egg powder alone 95 males): 30 house flies per trap
GC-EAD antennal activity [3]: active
GC-EAD antennal activity [4]: active
